Measured values reported in patent US9233905B2, “Oxidation and crystallization process for aromatic carboxylic acid production” (UOP LLC, priority 2012, dated 2016).

Test: solubility study in acetic acid and ionic liquid solvent
Format: physicochemical
Conditions: ionic liquid solvent compared with acetic acid; FIG. 4
Excerpt: Two samplers were used for different purposes. A custom Titanium sampler was fabricated by Parr Instrument with a 2 μm Titanium filter included to separate solid and liquid phase at operating temperature for studying reaction kinetics. A custom Titanium sampler, larger in size but with no filter attached, was used for a solubility study. For the solubility study, the solvent and solute were loaded in the reactor and heated to the desired temperature, and maintained for a certain time to ensure an equilibrium was established. Afterwards, sufficient time was allowed for the solid to settle before a sample was taken. Solubility was compared to another study that tested terephthalic acid solubility in acetic acid.

Row | SMILES | solubility
1 | O=Cc1ccc(C(=O)O)cc1 [4-CBA, 4-carboxybenzaldehyde] | greater solubility in ionic liquid than in acetic acid
2 | O=C(O)c1ccc(C(=O)O)cc1 [terephthalic acid, 1,4-benzenedicarboxylic acid] | greater solubility in ionic liquid than in acetic acid
